{"source": "patent US20250195624A1", "about": "“USE OF SUPEROXIDE DISMUTASE FOR THE TREATMENT AND/OR PREVENTION OF ALLERGIC ASTHMA” (ISOCELL S.A.S., priority 2022, published 2025)", "format_in_all_cases": "in vivo, Balb/cj mice", "key": {"[1]": {"test_system": "IL-5, IL-13, IL-17", "assay": "Cytokine response in supernatant of BAL", "conditions": "asthmatic mice", "description": "(§1) An allergic asthma murine model involving exposure to house dust mites was used. This model comprises a preliminary percutaneous sensitisation challenge phase of Balb/cj mice with a whole house dust mite extract (days 0, 7, 14, and 21), followed by two intranasal stimulations (days 27 and 34) which induced the symptoms of allergy-induced asthma in the test subjects. The efficacy of the Glisodin formulations was evaluated by daily administration to the mice via force feeding of 5 mg of the Glisodin formulation diluted in water, starting at 24 hours after the first intranasal sensitisation challenge and continuing for 5 consecutive days every week for 5 weeks. For comparative purposes, the same protocol was used to evaluate the effect of a combined administration of Glisodin with salbutamol, in which case the salbutamol was administered for 30 seconds at a solution concentration of 5 mg/ml as a nebulized aerosol 1 hour before each sensitisation challenge.\nCytokines are produced in response to antigens present at the surface of foreign bodies or by molecules considered as foreign by the immune. […] In the present case, Th2 inflammatory pathway cytokines, for example, IL-5 and IL-13, and Th17 cytokines, such as IL-17 were measured in the supernatant of BAL of the various mouse groups, and the results illustrated in FIG. 12, with application of ANOVA analysis of the data using the Tukey test leading to a confidence interval as indicated on the charts established: *=p<0.05, ** p<0.01 and *** p<0.001, in a population n=6 to 8 mice per group."}, "[2]": {"test_system": "IgE specific to house dust mites and MCP-1", "assay": "Humoral response: serum HDM-specific IgE by ELISA and MCP-1 production", "conditions": "asthmatic mice", "source_text": "An allergic asthma murine model involving exposure to house dust mites was used. This model comprises a preliminary percutaneous sensitisation challenge phase of Balb/cj mice with a whole house dust mite extract (days 0, 7, 14, and 21), followed by two intranasal stimulations (days 27 and 34) which induced the symptoms of allergy-induced asthma in the test subjects. […] For comparative purposes, the same protocol was used to evaluate the effect of a combined administration of Glisodin with salbutamol, in which case the salbutamol was administered for 30 seconds at a solution concentration of 5 mg/ml as a nebulized aerosol 1 hour before each sensitisation challenge. In allergic asthma, once the antigen has been recognised, clonal selection and proliferation taken place, followed by B lymphocyte differentiation into plasmocytes, the formation of the immune complex between IgE and allergens leads to degranulation of the effecting cells and liberation of chemical mediators such as histamine and MCP-1. In order to evaluate the effect of Glisodin treatment, with respect to initiation of an asthma attack, serum levels of IgE were measured by ELISA for IgE specific to house dust mites and measurements made of the levels of production of MCP-1. […]"}, "[3]": {"test_system": "house dust mite (HDM) allergy induced mice", "assay": "Respiratory function by flexiVent in response to methacholine, HDM allergy induced mice", "conditions": "asthmatic mice, increasing doses of methacholine", "description": "as §1\nRespiratory function in the mice was analysed using the flexi Vent™ system available from SciReq and the results illustrated in FIGS. 7 and 8. […] Respiratory function was measured using the flexiVent™ system in response to increasing doses of the broncho-constrictor methacholine. […]\nThe efficacy of Glisodin was also analysed in combination with salbutamol, a B2-adrenergic receptor agonist having a bronchodilatory and anti-inflammatory activity, as used in the treatment of asthma attacks, the results of which are illustrated in FIG. 8. […] In the charts, CTL or control indicates naïve untreated, untreated asthmatic mice (HDM), asthmatic mice having received salbutamol treatment (Salbutamol), asthmatic mice having received salbutamol and wheat Glisodin (Salbu Wheat) or asthmatic mice having received salbutamol with melon Glisodin (Salbu Melon), all measured by flexi Vent in response to increasing doses of the bronchoconstrictor methacholine. […]"}, "[4]": {"test_system": "cell population from bronchoalveolar lavages (BAL)", "assay": "Inflammatory response: BAL cell population by flow cytometry, HDM allergy induced mice", "conditions": "asthmatic mice", "description": "as §1\nAt the end of the study protocol on mice, bronchoalveolar lavage (BAL) were taken and the cell population analysed using flow cytometry. […] ANOVA analysis of the data using the Tukey test was carried out and a confidence interval as indicated on the charts established: *=p<0.05, ** p<0.01 and *** p<0.001, in a population of n-6 to 8 mice per group."}, "[5]": {"test_system": "Th1, Th2 and Th17 lymphocyte", "assay": "Immune response: lung cells restimulated with whole dust mite extract, flow cytometry", "conditions": "lungs of asthmatic mice", "description": "as §1\nAt the end of the treatment protocol, mice lungs were harvested, ground, restimulated with whole dust mite extract and the resulting cell populations analysed using flow cytometry. The results are illustrated in FIG. 10, in which the following cell types were counted: Th1 (CD3+, CD4+, IFNγ+), Th2 (CD3+, CD4+, IL-13+) and Th17 (CD3+, CD4+, IL-17+). […]"}, "[6]": {"test_system": "house dust mite (HDM) allergy induced mice", "assay": "Tissular degradation: histological analysis of lung samples (eosin and hematoxylin), scoring system", "conditions": "double blind scoring", "description": "as §1, with “For comparative purposes, the same protocol was used to evaluate the effect of a combined administration of Glisodin with salbutamol, in which case the salbutamol was administered for 30 seconds at a solution concentration of 5 mg/ml as a nebulized aerosol 1 hour before each sensitisation challenge.” left out\nIn situ evaluation of inflammation, bronchoconstriction and asthma severity were carried out via histological analysis, through staining of lung samples from the various mouse groups with eosin and hematoxylin, with a population of 6 mice per group, the images being shown at a scale of 100 μm, as illustrated in FIG. 13. The degree of tissular degradation was assessed in a double blind protocol by two independent assessors using a scoring system. […]"}}, "data": [{"smiles": "CC(C)(C)NCC(O)c1ccc(O)c(CO)c1", "note": "(stereo not shown) [salbutamol]", "values": [{"measurement": "IL-5 count", "setting": "[1]", "value": "effective in reducing"}, {"measurement": "IL-17 count", "setting": "[1]", "value": "tendency to decrease"}, {"measurement": "level of IL-13", "setting": "[1]", "value": "neither salbutamol nor the various Glisodin formulations tested were able to reduce"}, {"measurement": "level of MCP-1 produced", "setting": "[2]", "value": "reduced"}, {"measurement": "level of HDM-specific IgE", "setting": "[2]; serum", "value": "able to reduce"}, {"measurement": "compliance", "setting": "[3]", "value": "significant effect on the improvement"}, {"measurement": "elastance", "setting": "[3]", "value": "significant effect on the improvement"}, {"measurement": "resistance of the airways", "setting": "[3]", "value": "significant effect on the improvement"}, {"measurement": "number of eosinophils", "setting": "[4]; BAL", "value": "reduction"}, {"measurement": "number of lymphocytes", "setting": "[4]; BAL", "value": "reduction"}, {"measurement": "total number of cells in the BAL and lungs", "setting": "[4]; vs untreated asthmatic mice", "value": "reduction"}, {"measurement": "Th1 lymphocyte numbers", "setting": "[5]", "value": "reduction"}, {"measurement": "severity of the asthma (degree of tissular degradation, histological score)", "setting": "[6]", "value": "reduction"}]}]}
